{"source": "patent US6399574B1", "about": "(priority 1997, dated 2002)", "key": {"NR1. 1B subtype": {"molecular_target": "T1, NR1. 1B subtype (Homo sapiens, UniProt Q05586)", "T1 construct": "expressed in transfected cells; host or cells: oocytes", "type": "cell-based"}, "NR1-1b/NR2B NMDA subtype": {"molecular_target": "T2, NR1-1b/NR2B NMDA subtype (Homo sapiens, UniProt Q05586+Q13224)", "T2 construct": "expressed in transfected cells; host or cells: oocytes", "T2 sequence (Q13224 27-1484, other chains not shown)": "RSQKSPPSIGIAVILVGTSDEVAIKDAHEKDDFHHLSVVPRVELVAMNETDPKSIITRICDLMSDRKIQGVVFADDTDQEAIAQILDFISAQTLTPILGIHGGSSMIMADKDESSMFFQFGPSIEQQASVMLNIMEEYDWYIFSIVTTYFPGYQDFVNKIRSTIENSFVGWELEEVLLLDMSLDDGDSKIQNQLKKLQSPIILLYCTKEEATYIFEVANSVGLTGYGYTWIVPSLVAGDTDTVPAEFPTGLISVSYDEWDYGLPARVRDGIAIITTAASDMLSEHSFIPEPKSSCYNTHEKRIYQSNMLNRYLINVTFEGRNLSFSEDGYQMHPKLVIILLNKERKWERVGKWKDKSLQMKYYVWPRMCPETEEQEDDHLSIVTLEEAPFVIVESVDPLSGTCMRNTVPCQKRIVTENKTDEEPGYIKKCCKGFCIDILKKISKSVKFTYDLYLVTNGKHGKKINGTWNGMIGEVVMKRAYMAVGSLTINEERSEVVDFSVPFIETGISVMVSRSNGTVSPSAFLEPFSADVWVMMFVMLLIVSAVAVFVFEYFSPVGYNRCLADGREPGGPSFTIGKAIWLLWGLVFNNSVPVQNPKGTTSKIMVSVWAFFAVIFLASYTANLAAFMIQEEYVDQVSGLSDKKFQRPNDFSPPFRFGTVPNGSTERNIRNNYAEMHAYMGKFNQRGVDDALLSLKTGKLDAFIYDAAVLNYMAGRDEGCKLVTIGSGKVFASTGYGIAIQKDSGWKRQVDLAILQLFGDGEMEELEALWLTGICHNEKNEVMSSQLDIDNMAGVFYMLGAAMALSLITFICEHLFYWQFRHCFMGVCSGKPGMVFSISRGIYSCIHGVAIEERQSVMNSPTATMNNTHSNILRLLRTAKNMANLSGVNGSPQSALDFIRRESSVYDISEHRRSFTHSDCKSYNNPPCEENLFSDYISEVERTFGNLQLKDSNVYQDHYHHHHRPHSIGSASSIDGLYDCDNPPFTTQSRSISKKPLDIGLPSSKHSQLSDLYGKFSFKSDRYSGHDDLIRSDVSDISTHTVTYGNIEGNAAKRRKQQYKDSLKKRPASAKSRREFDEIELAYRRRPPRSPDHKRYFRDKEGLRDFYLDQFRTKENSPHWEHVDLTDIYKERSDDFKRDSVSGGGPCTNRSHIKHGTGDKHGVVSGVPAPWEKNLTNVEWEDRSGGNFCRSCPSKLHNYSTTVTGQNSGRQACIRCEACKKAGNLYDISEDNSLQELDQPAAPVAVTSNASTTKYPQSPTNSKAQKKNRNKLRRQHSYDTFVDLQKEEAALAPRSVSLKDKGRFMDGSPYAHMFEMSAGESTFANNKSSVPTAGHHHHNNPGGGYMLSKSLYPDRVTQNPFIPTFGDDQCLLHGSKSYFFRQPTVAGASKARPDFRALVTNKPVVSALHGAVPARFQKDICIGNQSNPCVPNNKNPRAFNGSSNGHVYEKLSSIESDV", "type": "cell-based"}, "[1]": {"tested_on": "Frings audiogenic seizure susceptible mice", "details": "mouse, in vivo"}}, "note": "Where a SMILES comes first, the peptide text is derived from it. [ ]: non-standard residue; d: D form. Gla = N[C@@H](CC(C(=O)O)C(=O)O)C(=O)O", "data": [{"smiles": "CC[C@H](C)[C@H](NC(=O)[C@H](CC(N)=O)NC(=O)[C@H](CC(C(=O)O)C(=O)O)NC(=O)[C@H](CCCNC(=N)N)NC(=O)[C@H](C)NC(=O)[C@H](CC(C)C)NC(=O)[C@H](CC(C(=O)O)C(=O)O)NC(=O)[C@H](C)NC(=O)[C@H](C)NC(=O)[C@H](CCSC)NC(=O)[C@H](CCCCN)NC(=O)[C@H](C)NC(=O)[C@@H](NC(=O)[C@H](CC(C(=O)O)C(=O)O)NC(=O)[C@H](CC(C(=O)O)C(=O)O)NC(=O)[C@H](CCC(=O)O)NC(=O)CN)C(C)C)C(=O)N[C@@H](C)C(=O)N[C@@H](CCCCN)C(=O)NCC(=O)N[C@H]1CSSC[C@@H](C(=O)N[C@@H](Cc2ccc(O)cc2)C(=O)N2CCC[C@H]2C(=O)O)NC(=O)[C@H](CC(N)=O)NC(=O)[C@H](C(C)C)NC(=O)[C@H](CCCCN)NC1=O", "note": "[Con R]", "values": [{"measurement": "inhibition of homomeric NR1 complex, 1B subtype", "setting": "NR1. 1B subtype", "result": "only inhibited the NR1. 1B subtype"}, {"measurement": "affinity for NR1-1b/NR2B relative to NR1-1b/NR2D", "setting": "NR1-1b/NR2B NMDA subtype", "result": "greater than 50 fold"}, {"measurement": "inhibition of the current produced in response to glutamate and glycine", "setting": "NR1-1b/NR2B NMDA subtype", "result": "approximately 95%"}, {"measurement": "selectivity for the B splice variant in heteromeric complexes", "setting": "NR1-1b/NR2B NMDA subtype", "result": "selective for the B splice variant"}]}, {"smiles": "CSCC[C@H](NC(=O)[C@H](CCCCN)NC(=O)[C@H](CCC(N)=O)NC(=O)[C@H](Cc1ccc(O)cc1)NC(=O)[C@H](CC(C(=O)O)C(=O)O)NC(=O)[C@H](CC(C(=O)O)C(=O)O)NC(=O)[C@H](CCC(=O)O)NC(=O)CN)C(=O)N[C@@H](CC(C)C)C(=O)N[C@@H](CC(C(=O)O)C(=O)O)C(=O)N[C@@H](CC(N)=O)C(=O)N[C@@H](CC(C)C)C(=O)N[C@@H](CCCNC(=N)N)C(=O)N[C@@H](CC(C(=O)O)C(=O)O)C(=O)N[C@@H](C)C(=O)N[C@@H](CCC(=O)O)C(=O)N[C@H](C(=O)N[C@@H](CCCCN)C(=O)N[C@@H](CCCCN)C(=O)N[C@@H](CC(N)=O)C(=O)N[C@@H](C)C(N)=O)C(C)C", "note": "[Con T, Gly-Glu-Xaa1-Xaa1-Tyr-Gln-Lys-Met-Leu-Xaa2-Asn-Leu-Arg-Xaa2-Ala-Glu-Val-Lys-Lys-Asn-Ala] (H-GE[Gla][Gla]YQKML[Gla]NLR[Gla]AEVKKNA-NH2)", "values": [{"measurement": "ED50", "setting": "[1]", "result": 0.017, "unit": "nmols"}, {"measurement": "ED50 (pmol, i.c.v.)", "setting": "[1]", "result": 5.1, "unit": "pmol"}]}]}
